The text below walks through data of ChEMBL document CHEMBL6074681, “High potency 3-carboxy-2-methylbenzofuran pendrin inhibitors as novel diuretics” (Eur J Med Chem, 2025).

By IC50 is commonly meant the point on the concentration scale where inhibition reaches its midpoint. In general, inhibition refers to how much of the control response was suppressed.

Activity calls are given as the source filed them. The rule behind the calls is not given here.

Series [1] concerns the target T1, Pendrin (Homo sapiens, UniProt O43511).
T1 sequence (O43511 whole entry): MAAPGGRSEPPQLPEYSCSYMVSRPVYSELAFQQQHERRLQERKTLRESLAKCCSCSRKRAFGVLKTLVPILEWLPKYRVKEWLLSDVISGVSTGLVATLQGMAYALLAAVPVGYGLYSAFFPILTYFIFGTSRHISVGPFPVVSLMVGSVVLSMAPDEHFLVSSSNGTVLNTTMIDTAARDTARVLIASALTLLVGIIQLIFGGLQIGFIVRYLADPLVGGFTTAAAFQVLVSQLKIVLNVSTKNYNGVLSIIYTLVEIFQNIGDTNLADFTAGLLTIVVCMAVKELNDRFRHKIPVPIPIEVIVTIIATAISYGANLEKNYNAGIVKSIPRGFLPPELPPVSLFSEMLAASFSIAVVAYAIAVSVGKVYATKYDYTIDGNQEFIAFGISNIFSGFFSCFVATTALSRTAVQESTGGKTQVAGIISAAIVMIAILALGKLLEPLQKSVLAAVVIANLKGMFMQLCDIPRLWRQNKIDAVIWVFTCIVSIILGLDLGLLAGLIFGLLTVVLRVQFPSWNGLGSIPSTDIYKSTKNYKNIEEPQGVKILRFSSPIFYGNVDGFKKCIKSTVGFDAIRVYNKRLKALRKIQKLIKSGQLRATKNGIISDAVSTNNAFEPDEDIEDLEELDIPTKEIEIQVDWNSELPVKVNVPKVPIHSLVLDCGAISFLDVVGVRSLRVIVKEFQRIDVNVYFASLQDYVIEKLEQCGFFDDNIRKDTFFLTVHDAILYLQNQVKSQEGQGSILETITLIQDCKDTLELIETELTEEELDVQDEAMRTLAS
As to the kind of experiment: Inhibition of Pendrin (unknown origin) transfected in rat FRT cells assessed as reduction in Cl-/I- ions exchange by YFP fluorescence quenching assay. In kind it is cell-based.

The target of series [2] is T2, Pendrin (Homo sapiens) (UniProt O43511).
T2 sequence (whole entry): T1 sequence (O43511 whole entry)
The series is described as follows: Potency index, ratio of PDSinh-A01 IC50 to test compound IC50 for Pendrin (unknown origin) transfected in rat FRT cells assessed as reduction in Cl-/I- ions exchange by YFP fluorescence quenching assay. The class given is cell-based.

The target in series [3] is T3, Chloride anion exchanger (Homo sapiens) (UniProt P40879).
T3 sequence (whole entry): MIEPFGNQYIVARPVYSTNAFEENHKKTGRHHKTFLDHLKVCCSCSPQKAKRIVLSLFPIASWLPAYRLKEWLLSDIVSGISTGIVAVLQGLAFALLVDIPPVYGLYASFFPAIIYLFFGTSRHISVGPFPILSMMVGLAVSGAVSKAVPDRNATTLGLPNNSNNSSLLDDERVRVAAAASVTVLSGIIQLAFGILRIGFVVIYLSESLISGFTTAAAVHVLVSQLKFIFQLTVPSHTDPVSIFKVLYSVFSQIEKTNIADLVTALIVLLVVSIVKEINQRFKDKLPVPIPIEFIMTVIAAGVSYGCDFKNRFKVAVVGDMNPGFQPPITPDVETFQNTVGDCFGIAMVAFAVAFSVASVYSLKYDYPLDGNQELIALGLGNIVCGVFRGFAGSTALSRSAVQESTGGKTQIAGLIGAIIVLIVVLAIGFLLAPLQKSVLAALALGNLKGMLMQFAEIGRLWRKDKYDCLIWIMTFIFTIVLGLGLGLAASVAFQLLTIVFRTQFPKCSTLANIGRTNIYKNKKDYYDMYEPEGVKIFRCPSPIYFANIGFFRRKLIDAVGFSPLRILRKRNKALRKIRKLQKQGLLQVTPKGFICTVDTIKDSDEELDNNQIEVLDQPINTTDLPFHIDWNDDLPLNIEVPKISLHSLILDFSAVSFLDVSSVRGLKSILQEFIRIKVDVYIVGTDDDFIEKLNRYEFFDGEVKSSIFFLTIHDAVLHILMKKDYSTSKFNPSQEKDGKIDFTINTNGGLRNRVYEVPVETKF
The series is described as follows: Inhibition of SLC26A3 (unknown origin) transfected in rat FRT cells at 25 uM by YFP fluorescence quenching assay. The class given is cell-based.

The target of series [4] is T4, Solute carrier family 26 member 6 (Homo sapiens) (UniProt Q9BXS9).
T4 sequence (whole entry): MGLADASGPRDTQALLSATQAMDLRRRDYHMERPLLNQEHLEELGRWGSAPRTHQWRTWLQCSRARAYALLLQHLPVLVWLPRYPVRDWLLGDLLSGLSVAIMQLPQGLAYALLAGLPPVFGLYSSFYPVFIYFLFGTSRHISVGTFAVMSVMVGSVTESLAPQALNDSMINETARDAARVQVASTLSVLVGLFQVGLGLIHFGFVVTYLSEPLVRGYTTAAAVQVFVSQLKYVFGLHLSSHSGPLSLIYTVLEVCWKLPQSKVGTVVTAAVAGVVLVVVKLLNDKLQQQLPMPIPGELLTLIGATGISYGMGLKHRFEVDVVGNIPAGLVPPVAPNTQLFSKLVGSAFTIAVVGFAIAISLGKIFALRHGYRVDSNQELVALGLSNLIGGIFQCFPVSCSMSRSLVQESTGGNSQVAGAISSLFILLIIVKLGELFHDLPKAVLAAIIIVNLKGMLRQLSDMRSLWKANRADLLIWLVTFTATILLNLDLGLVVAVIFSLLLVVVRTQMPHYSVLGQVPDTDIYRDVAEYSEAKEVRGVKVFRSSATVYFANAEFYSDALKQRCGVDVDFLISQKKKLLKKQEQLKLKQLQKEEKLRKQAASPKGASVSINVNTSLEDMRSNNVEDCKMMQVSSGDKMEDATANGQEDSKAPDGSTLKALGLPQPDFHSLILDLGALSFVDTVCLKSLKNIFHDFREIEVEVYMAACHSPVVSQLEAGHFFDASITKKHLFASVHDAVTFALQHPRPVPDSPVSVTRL
The series is described as follows: Inhibition of SLC26A6 (unknown origin) transfected in rat FRT cells at 25 uM by YFP fluorescence quenching assay. In kind it is cell-based.

In series [5] the target is T2, Pendrin (Homo sapiens). As to the kind of experiment: Inhibition of Pendrin (unknown origin) transfected in rat FRT cells at 25 uM by YFP fluorescence quenching assay relative to control. The class given is cell-based.
The target of series [6] is T5, Solute carrier family 26 member 6 (Homo sapiens, UniProt Q9BXS9).
T5 sequence (Q9BXS9 whole entry): T4 sequence (whole entry)
As to the kind of experiment: Inhibition of SLC26A6 (unknown origin) transfected in rat FRT cells by YFP fluorescence quenching assay. The class given is cell-based.

Series [7] can be described thus: Selectivity index, ratio of IC50 for SLC26A6 (unknown origin) transfected in rat FRT cells to IC50 for Pendrin (unknown origin) transfected in rat FRT cells. The class given is cell-based.
Series [8] has as its target Cystic fibrosis transmembrane conductance regulator (Homo sapiens) (UniProt P13569). As to the kind of experiment: Inhibition of CFTR (unknown origin) transfected in rat FRT cells at 25 uM by YFP fluorescence quenching assay. In kind it is cell-based.
Series [9] can be described thus: Cytotoxicity against rat FRT cells assessed as cell viability at 10 uM measured after 24 hrs by Alamar blue dye based assay. In kind it is toxicity. A general note: Resazurin is reduced to fluorescent resorufin, in cell work by metabolically active cells.
For series [10], the system named is Mus musculus. As to the kind of experiment: Effect on urine volume in mouse model at 10 mg/kg, ip measured for 3 hrs. In kind it is functional, organism-based.
The test system of series [11] is Mus musculus. As to the kind of experiment: Effect on osmolality in mouse model at 10 mg/kg, ip measured for 3 hrs. In kind it is functional, organism-based.
The subject of series [12] is Mus musculus. As to the kind of experiment: Potentiation of Furosemide-induced diuretic effect in mouse model at 10 mg/kg, ip measured for 3 hrs relative to control. The class given is functional.
Series [13] concerns Mus musculus. As to the kind of experiment: Effect on osmolality in mouse model at 10 mg/kg, ip measured for 3 hrs in presence of Furosemide. In kind it is functional, organism-based.
Series [14] deals with T1, Pendrin. As to the kind of experiment: Inhibition of Pendrin (unknown origin).

Sequence of Cystic fibrosis transmembrane conductance regulator (Homo sapiens) (P13569 whole entry, looked up): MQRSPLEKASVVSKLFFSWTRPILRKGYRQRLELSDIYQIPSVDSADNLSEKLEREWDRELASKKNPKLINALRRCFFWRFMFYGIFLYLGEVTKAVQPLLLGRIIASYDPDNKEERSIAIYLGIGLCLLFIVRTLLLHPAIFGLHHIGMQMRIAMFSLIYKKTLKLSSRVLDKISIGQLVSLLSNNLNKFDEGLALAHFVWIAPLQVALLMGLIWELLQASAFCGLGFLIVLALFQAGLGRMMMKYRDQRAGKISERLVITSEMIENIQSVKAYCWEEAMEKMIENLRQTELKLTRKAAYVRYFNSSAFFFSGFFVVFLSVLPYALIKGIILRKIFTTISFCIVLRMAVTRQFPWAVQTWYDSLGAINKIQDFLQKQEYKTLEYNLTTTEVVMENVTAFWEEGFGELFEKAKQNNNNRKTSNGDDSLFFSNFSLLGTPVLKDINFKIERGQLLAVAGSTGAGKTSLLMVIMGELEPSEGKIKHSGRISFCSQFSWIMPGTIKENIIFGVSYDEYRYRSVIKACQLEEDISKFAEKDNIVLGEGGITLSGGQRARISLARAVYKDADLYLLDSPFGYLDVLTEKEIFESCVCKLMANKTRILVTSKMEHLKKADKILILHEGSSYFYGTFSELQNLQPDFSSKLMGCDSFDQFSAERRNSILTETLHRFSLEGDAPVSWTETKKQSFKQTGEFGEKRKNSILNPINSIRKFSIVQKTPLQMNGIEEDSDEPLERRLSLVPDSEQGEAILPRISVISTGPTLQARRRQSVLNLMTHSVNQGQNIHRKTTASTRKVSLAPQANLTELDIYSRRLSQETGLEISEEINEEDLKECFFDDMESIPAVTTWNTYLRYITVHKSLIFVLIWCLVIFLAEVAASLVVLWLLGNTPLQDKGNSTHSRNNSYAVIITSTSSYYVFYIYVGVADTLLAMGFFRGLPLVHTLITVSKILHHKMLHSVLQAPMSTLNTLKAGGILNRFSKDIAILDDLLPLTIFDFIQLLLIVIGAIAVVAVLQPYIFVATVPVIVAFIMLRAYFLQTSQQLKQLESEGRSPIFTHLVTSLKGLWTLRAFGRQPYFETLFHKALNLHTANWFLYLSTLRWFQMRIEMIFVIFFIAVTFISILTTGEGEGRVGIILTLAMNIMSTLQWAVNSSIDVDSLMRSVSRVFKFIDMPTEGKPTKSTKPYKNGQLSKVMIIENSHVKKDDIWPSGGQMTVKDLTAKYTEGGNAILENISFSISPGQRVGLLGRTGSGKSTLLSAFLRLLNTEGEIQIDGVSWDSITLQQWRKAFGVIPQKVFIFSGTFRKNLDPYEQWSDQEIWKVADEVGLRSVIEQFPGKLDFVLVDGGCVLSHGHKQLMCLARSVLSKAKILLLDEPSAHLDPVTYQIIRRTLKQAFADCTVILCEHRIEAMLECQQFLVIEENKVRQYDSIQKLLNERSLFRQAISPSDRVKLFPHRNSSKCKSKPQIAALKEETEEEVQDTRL

For the molecule `Cc1oc2ccc(OCc3ccc(Cl)cc3)cc2c1C(=O)O`, the IC50 in series [1] amounted to 5 µM.

On to `Cc1ccccc1COc1ccc2oc(C)c(C(=O)O)c2c1`, for which, in series [1], the IC50 amounted to 1.44 µM.

Take `Cc1oc2ccc(OCc3ccc(Br)cc3)cc2c1C(=O)O`: the IC50 in series [1] amounted to 4.1 µM. The Ratio IC50 in [2] worked out at 3.

On to `Cc1oc2ccc(OCc3cc(F)ccc3Cl)cc2c1C(=O)O`, for which the values for the IC50 in series [1] and in [6] were 0.48 µM and 10 µM, respectively. Further, the inhibition entry in series [3] is “inactive”. The inhibition entry in [4] was “Active”. Also, the inhibition in [5] was 100%; in series [8] it was “Active; Exhibited Minimal Effect”. In addition, the Ratio IC50 in series [7] stood at 20. The Activity result in [9] was “Non-toxic”; in [10] it was “No effect”; in [11] it was “No effect”; in series [12], 45%; in series [13], “No effect”.

Turning to `Cc1oc2ccc(OCc3cccc(Cl)c3)cc2c1C(=O)O`, the IC50 in [1] turned out to be 4.8 µM.

Take `Cc1oc2ccc(OCc3cccc(Br)c3)cc2c1C(=O)O`: the IC50 in series [1] was determined as 8.2 µM.

As for `Cc1oc2ccc(OCc3ccccc3)cc2c1C(=O)O`, the concentration for half-maximal inhibition (IC50) in [1] is 3.1 µM.

Regarding `Cn1nc(COc2cccc(F)c2)c2c1CCN(C(=O)Nc1ccc(Cl)cc1)C2`, the IC50 in series [14] was found to be 12.5 µM.

Regarding `Cc1oc2ccc(OCc3ccccc3Cl)cc2c1C(=O)O`, the inhibition entry in series [3] is “inactive”. Also, the figures for the inhibition result in series [4], in series [5] and in series [8] were “Active; Exhibited Minimal Inhibition”, 100% and “Active; Exhibited Minimal Effect”, respectively. Further, the Activity result in series [9] is given as “Non-toxic”.
